Measurements reported in publication PMC8100298, “Histone deacetylase inhibitor resminostat in combination with sorafenib counteracts platelet-mediated pro-tumoral effects in hepatocellular carcinoma” (Scientific Reports, 2021).
Where two headings read alike, the source gives them in different places.

Assays:
Experiment in all cases: Efficacy screening assay
Type in all cases: cell-based
[1] = tested on: DU145; settings: DU145, prostate
Protocol: (§1) labelled fluorogenic peptide substrates: fluorogenic peptide from p53 residues 379-382 (RHKK(Ac)AMC) for HDAC1, 2, 3, 6, 10, 11; fluorogenic HDAC Class IIa Substrate (Trifluoro acetyl Lysine, Ac-LGK(TFA)-AMC) for HDAC 4, 5, 7, 9; and fluorogenic peptide from p53 residues 379-382 (RHK(Ac)K(Ac)AMC) for HDAC8. 1 mg/mL BSA and DMSO was added to the assay buffer (50 mM Tris-HCl, pH 8.0; 137 mM NaCl; 2.7 mM KCl; 1 mM MgCl2) prior to use. In a two-step reaction, the substrate with the acetylated lysine side chain was incubated for with a sample containing HDAC activity to p roduce the deacetylated products: 1 h at 30°C for HDAC1, 2, 3 and 6; 30 min at RT for HDAC4, 5, 7 and 9; 2 h at 30°C for HDAC8, 10 and 11. In a second step, the deacetylated products were digested by the addition of developer for 1 h at 30°C to produce the fluorescent signal proportional to the amount of deacetylated substrates and the fluorescence was measured using an Envision plate reader at 355 nm (excitation) and 460 nm (emission). A kinetic measurement was performed for ~1 h with 5 min intervals and d ata from the final time point were analysed. IC50 values and curve fits were obtained using GraphPad Softwar e.
(§2) The experiment was performed by Oncolead GmbH & Co. KG (Karlsfeld , Germany), based on a standardized screening procedure . Cell lines were purchased directly from the ATCC, NCI and DSMZ cell line c ollections. Cells used for the study had undergone less than 20 passages. To ensure the absence of potential contamination and wrong assignment, all cell lines were tested using a whole genome assay (Agilent, USA). All cell lines were grown as recommended by the suppliers and with addition of 100 U/mL penicillin G and 100 µg/mL; streptomycin. Cell growth and treatments were performed in Nunclon D 96 -well plates (NUNC, Germany). The optimal seeding density for each cell line was determined to ensure exponential growth for the duration of the experiment. All cells growing without anti-cancer agents were sub-conﬂuent by the end of the treatment, as determined by visual inspection.
(§3) After an initial 24 h pre-growth period, the compounds were added. The vehicle concentration […]
(§4) was 0.1% DMSO. After incubation at 37°C for 72 h, the culture medium was aspirated, and the cells were precipitated by the addition of 10% trichloroacetic acid (Sigma-Aldrich, Missouri, US). After overnight incubation at 4°C, the plates were washed three times with deionized water. The precipitates were then stained with SRB (0.4% wt/v sulforhodamine B solution in 1% acetic acid, Sigma-Aldrich, Missouri, US). Afterwards, the plates were washed six times with 1% acetic acid to remove unbound stain. After drying the plates at room temperature, the bound SRB was solubilized with 10 mM Tris base and the optical density was measured at 520 nm using a Victor2 plate reader (Perkin Elmer, Germany). Blank OD values were subtracted from mean OD values for each concentration. The nonlinear curve ﬁtting and EC50 calculations were per formed using XLﬁt and algorithm “205” (ID Business […]
(§5) For cell-based and other in vitro assays, data are presented as data mean ± SD of at least […]
(§6) For the orthotopic mouse model, data are presented as mean + SEM. For statistical analysis, one-way ANOVA and multiple comparison (Dunnett) was performed for compound treatments compared to vehicle control. The adjusted p-values with 95% confidence interval were reported as significant. For comparison of EC50 values in Figure 1F, one-way ANOVA with multiple comparison testing (Tukey) was performed. Multiplicity adjusted p -values for the EC50 with sorafenib versus resminostat for each cell line and comparison between cell lines for sorafenib are presented (95% confidence interval for significance testing). For comparison of EC50 data in Figure 2B, one-way ANOVA with multiple comparison testing (Tukey) was performed. Multiplicity adjusted p-values with 95% confidence interval was applied. For the […]

[2] = tested on: SKOV3; settings: SKOV3, ovary
Protocol: as §1, §2, §3, §4, §5, §6

[3] = tested on: SKMEL28; settings: Homo sapiens, SK-MEL-28, SKMEL28, skin, 72 h
Protocol: as §1, §2, §3, §4, §5, §6

[4] = tested on: DLD1; settings: Homo sapiens, DLD-1, DLD1, colon, 72 h
Protocol: as §1, §2, §3, §4, §5, §6

[5] = tested on: SF295; settings: SF295, brain
Protocol: as §1, §2, §3, §4, §5, §6

[6] = tested on: 5637 (HTB-9)
Protocol: as §1, §2, §3, §4, §5, §6

[7] = tested on: TE671; settings: TE671, muscle
Protocol: as §1, §2, §3, §4, §5, §6

[8] = tested on: HEK293; settings: HEK293, kidney
Protocol: as §1, §2, §3, §4, §5, §6

[9] = tested on: U87MG; settings: 72 h, brain
Protocol: as §1, §2, §3, §4, §5, §6

[10] = tested on: COLO205; settings: COLO205, colon
Protocol: as §1, §2, §3, §4, §5, §6

[11] = tested on: SW620; settings: SW620, colon
Protocol: as §1, §2, §3, §4, §5, §6

[12] = log of EC50, negative, read-out: log(EC50) (converted)

`CN(C)Cc1ccc(S(=O)(=O)n2ccc(/C=C/C(=O)NO)c2)cc1` [resminostat, Resminostat] was tested. Which EC50 ([1]; 72 h, read-out: EC50) did it give?
Its EC50 is 1.38 µM.

And the EC50 ([1]; Homo sapiens, DU-145, 72 h, log of EC50, negative, read-out: log(EC50) (converted))?
The EC50 was 1.38 µM.

And the EC50 ([1]; Homo sapiens, DU-145, 72 h, read-out: EC50)?
The EC50 was 1.38 µM.

And the EC50 ([2]; Homo sapiens, SK-OV-3, 72 h, log of EC50, negative, read-out: log(EC50) (converted))?
The EC50 was 3.72 µM.

What about the EC50 ([2]; Homo sapiens, SK-OV-3, 72 h, read-out: EC50) of the same compound?
The EC50 was 3.69 µM.

And the EC50 ([2]; 72 h, read-out: EC50)?
The EC50 was 3.69 µM.

And the EC50 [3, 12]?
Its EC50 is 3.31 µM.

And the EC50 ([3]; read-out: EC50)?
The EC50 was 3.34 µM.

And the EC50 [4, 12]?
Its EC50 is 1.95 µM.

What about the EC50 ([4]; read-out: EC50) of the same compound?
Its EC50 is 1.95 µM.

And the EC50 ([5]; Homo sapiens, SF-295, 72 h, log of EC50, negative, read-out: log(EC50) (converted))?
The EC50 was 2.51 µM.

What about the EC50 ([5]; Homo sapiens, SF-295, 72 h, read-out: EC50) of the same compound?
Its EC50 is 2.53 µM.

And the EC50 ([5]; 72 h, read-out: EC50)?
Its EC50 is 2.53 µM.

What about the EC50 ([6]; 72 h, bladder, log of EC50, negative, read-out: log(EC50) (converted)) of the same compound?
The EC50 was 1.12 µM.

What about the EC50 ([6]; 72 h, bladder, read-out: EC50) of the same compound?
Its EC50 is 1.13 µM.

What about the EC50 ([6]; bladder, 72 h, read-out: EC50) of the same compound?
The EC50 was 1.13 µM.

And the EC50 ([7]; Homo sapiens, TE-671, 72 h, log of EC50, negative, read-out: log(EC50) (converted))?
Its EC50 is 1.35 µM.

And the EC50 ([7]; Homo sapiens, TE-671, 72 h, read-out: EC50)?
Its EC50 is 1.34 µM.

And the EC50 ([7]; 72 h, read-out: EC50)?
The EC50 was 1.34 µM.

What about the EC50 ([8]; 72 h, read-out: EC50) of the same compound?
The EC50 was 4.76 µM.

And the EC50 ([8]; Homo sapiens, HEK293, 72 h, log of EC50, negative, read-out: log(EC50) (converted))?
Its EC50 is 4.79 µM.

And the EC50 ([8]; Homo sapiens, HEK293, 72 h, read-out: EC50)?
The EC50 was 4.76 µM.

What about the EC50 ([9]; Homo sapiens, U-87 MG, log of EC50, negative, read-out: log(EC50) (converted)) of the same compound?
Its EC50 is 5.5 µM.

And the EC50 ([9]; Homo sapiens, U-87 MG, read-out: EC50)?
Its EC50 is 5.55 µM.

And the EC50 ([9]; read-out: EC50)?
Its EC50 is 5.55 µM.

What about the EC50 ([10]; 72 h, read-out: EC50) of the same compound?
The EC50 was 2.54 µM.

And the EC50 ([10]; Homo sapiens, COLO 205, 72 h, log of EC50, negative, read-out: log(EC50) (converted))?
The EC50 was 2.57 µM.

And the EC50 ([10]; Homo sapiens, COLO 205, 72 h, read-out: EC50)?
The EC50 was 2.54 µM.

What about the EC50 ([11]; Homo sapiens, SW-620, 72 h, log of EC50, negative, read-out: log(EC50) (converted)) of the same compound?
Its EC50 is 1.29 µM.

And the EC50 ([11]; Homo sapiens, SW-620, 72 h, read-out: EC50)?
Its EC50 is 1.27 µM.

And the EC50 ([11]; 72 h, read-out: EC50)?
The EC50 was 1.27 µM.
